Measurements published in patent US20100143994A1, “PROCESS FOR FERMENTIVE PREPARATION OF ALCOHOLS AND RECOVERY OF PRODUCT” (E. I. DU PONT DE MEMOURS AND COMPANY, priority 2008, published 2010).

Tests used:
[1] = test system: Saccharomyces cerevisiae (W1362 20A); assay: Scale-up (25 mL broth) fermentation with ionic liquid, glucose uptake and ethanol production over five hours; assay type: cell-based; conditions: 5 volume percent ionic liquid, five hour time span, FIG. 2
Description: Cultures were again prepared using the same growth conditions as described above except that the total broth volume was 25 mL. The selected ionic liquids were added to a container of each broth in an amount of 5 volume percent. In these experiments, small samples were withdrawn from the broth for HPLC analysis periodically over a five hour time span to get a better idea of the extent of metabolic activity after ionic liquid addition as well as to provide information on glucose consumption and product formation. […] The calculation of GUI was made as described above, and amount of ethanol produced was taken directly from the HPLC data.

[2] = Extraction of isobutanol from an aqueous solution by ionic liquid; assay type: physicochemical; conditions: 3 mL aqueous solution about 31 g/L isobutanol, 5 vol % ionic liquid, overnight equilibration
Description: (§1) Ethanol and isobutanol concentration in the solution was measured using HPLC as described above following thorough mixing and overnight equilibration of the contents of the vial.

[3] = Extraction of ethanol from an aqueous solution by ionic liquid; assay type: physicochemical; conditions: 3 mL aqueous solution about 31 g/L ethanol, 5 vol % ionic liquid, overnight equilibration
Description: as §1

## CCCCCCn1cc[n+](C)c1.FC(F)(F)C(F)(F)[P-](F)(F)(F)(C(F)(F)C(F)(F)F)C(F)(F)C(F)(F)F [Example 1, 1-hexyl-3-methylimidazolium tris(pentafluoroethyl)trifluorophosphate]
[1]
  ethanol production throughout the fermentation run: remained robust
  glucose uptake (GUI) throughout the fermentation run: remained robust
[2]
  Isobutanol (mM) in solution after equilibration: 404 mM
[3]
  Ethanol (mM) in solution after equilibration: 680 mM

## 1-hexyl-3-methylimidazolium bis(trifluoromethylsulfonyl)imide [Example 9]
[1]
  ethanol production throughout the fermentation run: remained robust
  glucose uptake (GUI) throughout the fermentation run: remained robust
[2]
  Isobutanol (mM) in solution after equilibration: 388 mM
[3]
  Ethanol (mM) in solution after equilibration: 678 mM

## 1-butyl-3-methylpyrrolidinium bis(trifluoromethylsulfonyl)imide [Example 15]
[1]
  ethanol production throughout the fermentation run: remained robust
  glucose uptake (GUI) throughout the fermentation run: remained robust
[2]
  Isobutanol (mM) in solution after equilibration: 391 mM
[3]
  Ethanol (mM) in solution after equilibration: 676 mM

## 1-ethyl-3-methylimidazolium bis(trifluoromethylsulfonyl)imide [Example 6]
[1]
  ethanol production throughout the fermentation run: remained robust
  glucose uptake (GUI) throughout the fermentation run: remained robust
[2]
  Isobutanol (mM) in solution after equilibration: 389 mM
[3]
  Ethanol (mM) in solution after equilibration: 670 mM
